The subject of assay [1] is pinch skin graft from male BALB/c donors transplanted to male C3 H(H-2K) recipients. The experiment in a line: pinch skin graft survival test procedure. The class given is in vivo, C3 H(H-2K) recipients (mice). Conditions: for Skin graft survival time (mean survival time ± S.D.): 4 mg/kg, intraperitoneally or orally, untreated grafts rejected within 6-7 days.
Description: Representative compounds of this invention were also evaluated in an in vivo test procedure designed to determine the survival time of pinch skin graft from male BALB/c donors transplanted to male C3 H(H-2K) recipients. […] Briefly, a pinch skin graft from the donor was grafted on the dorsum of the recipient as a allograft, and an isograft was used as control in the same region. The recipients were treated with either varying concentrations of test compounds intraperitoneally or orally. Rapamycin was used as a test control. Untreated recipients serve as rejection control. The graft was monitored daily and observations were recorded until the graft became dry and formed a blackened scab. This was considered as the rejection day. The mean graft survival time (number of days±S.D.) of the drug treatment group was compared with the control group. […] Results are expressed as the mean survival time in days. Untreated (control) pinch skin grafts are usually rejected within 6-7 days. Compounds were tested using a dose of 4 mg/kg.
Assay [2] relates to thymus cells of normal BALB/c mice (PHA and IL-1 induced lymphocyte proliferation). The experiment in a line: comitogen-induced thymocyte proliferation procedure (LAF). Particulars: for IC50: read-out: LAF IC50. The class given is cell-based. As for the experimental part: Immunosuppressive activity for representative compounds of this invention was evaluated in an in vitro standard pharmacological test procedure to measure lymphocyte proliferation (LAF) and in three in vivo standard pharmacological test procedures. The pinch skin graft test procedure measures the immunosuppressive activity of the compound tested as well as the ability of the compound tested to inhibit or treat transplant rejection. The adjuvant arthritis standard pharmacological test procedure, which measures the ability of the compound tested to inhibit immune mediated inflammation. The adjuvant arthritis test procedure is a standard pharmacological test procedure for rheumatoid arthritis. Representative compounds of this invention were also evaluated in a heart allograft standard pharmacological test procedure which measures immunosuppressive activity of the compound tested as well as the ability of the compound tested to inhibit or treat transplant rejection. The procedures for these standard pharmacological test procedures are provided below.
The comitogen-induced thymocyte proliferation procedure (LAF) was used as an in vitro measure of the immunosuppressive effects of representative compounds. Briefly, cells from the thymus of normal BALB/c mice are cultured for 72 hours with PHA and IL-1 and pulsed with tritiated thymidine during the last six hours. Cells are cultured with and without various concentrations of rapamycin, cyclosporin A, or test compound. Cells are harvested and incorporated radioactivity is determined. Inhibition of lymphoproliferation is assessed as percent change in counts per minute from non-drug treated controls. For each compound evaluated, rapamycin was also evaluated for the purpose of comparison. An IC50 was obtained for each test compound as well as for rapamycin. […] The results obtained are provided as an IC50.

In assay [3] the test system is experimental allergic encephalomyelitis. Particulars: model for multiple sclerosis; cited from earlier work.
A further assay deals with IgE-like antibodies. Conditions: cited from earlier work.
The next assay deals with Candida albicans. Particulars: in vitro and in vivo, particularly against Candida albicans; cited from earlier work.
The subject of the next assay is adjuvant arthritis. Conditions: model for rheumatoid arthritis; cited from earlier work.
Where [4] appears, read: thymocytes cultured 72 hours with PHA and IL-1, tritiated thymidine last six hours.
Setting [5] is: thymocytes cultured 72 hours with PHA and IL-1, tritiated thymidine last six hours, hydrochloride salt.

The structures appear in SMILES notation. Values joined by “and” are separate entries in the source; they are usually repeats but may differ in a detail not shown here. Equal values may be shown once. Where a name gives a salt, the structure may show the parent alone. Read-outs that look alike come from different tables or passages of the source.

As a reminder, the IC50 is the concentration that inhibits the measured activity by half.

On to `CO[C@H]1C[C@@H]2CC[C@@H](C)[C@@](O)(O2)C(=O)C(=O)N2CCCC[C@H]2C(=O)O[C@H]([C@H](C)C[C@@H]2CCC(=O)[C@H](OC)C2)CC(=O)[C@H](C)/C=C(\C)[C@@H](OC(=O)CN(C)C)[C@@H](OC)C(=O)[C@H](C)C[C@H](C)/C=C/C=C/C=C/1C` [Example 1, 42-Oxorapamycin-31-ester with 31-N,N-dimethylglycine], for which the “Skin graft survival time (mean survival time ± S.D.)” value (“Skin graft survival time” for short) in assay [1] turned out to be 9.6 ± 0.9 days. For the same compound, the IC50 in assay [2] (setting [4]) turned out to be 9.7 nM.

Regarding `CO[C@H]1C[C@@H]2CC[C@@H](C)[C@@](O)(O2)C(=O)C(=O)N2CCCC[C@H]2C(=O)O[C@H]([C@H](C)C[C@@H]2CCC(=O)[C@H](OC)C2)CC(=O)[C@H](C)/C=C(\C)[C@@H](OC(=O)CN(C)C)[C@@H](OC)C(=O)[C@H](C)C[C@H](C)/C=C/C=C/C=C/1C` [Example 2, 42-Oxorapamycin-31-ester with 31-N,N-dimethylglycine hydrochloride salt], the “Skin graft survival time” value in assay [1] (hydrochloride salt) is 10.0 ± 0.0 days and 10.3 ± 0.5 days. Also, the IC50 in assay [2] (setting [5]) worked out at 23.4 nM.

Turning to `CO[C@H]1C[C@@H]2CC[C@@H](C)[C@@](O)(O2)C(=O)C(=O)N2CCCC[C@H]2C(=O)O[C@H]([C@H](C)C[C@@H]2CCC(=O)[C@H](OC)C2)CC(=O)[C@H](C)/C=C(\C)[C@@H](OC(=O)CN(C)C)[C@@H](OC)C(=O)[C@H](C)C[C@H](C)/C=C/C=C/C=C/1C` [Example 3, 42-Oxorapamycin-31-ester with 31-N,N-dimethylglycine maleate salt], the “Skin graft survival time” value in assay [1] (maleate salt) was 9.2 ± 1.3 days. Also, in assay [2] (thymocytes cultured 72 hours with PHA and IL-1, tritiated thymidine last six hours, maleate salt), the IC50 came out at 14.4 nM.

Consider `CO[C@H]1C[C@@H]2CC[C@@H](C)[C@@](O)(O2)C(=O)C(=O)N2CCCC[C@H]2C(=O)O[C@H]([C@H](C)C[C@@H]2CC[C@@H](OC(=O)C(C)(C)NC(=O)OCC3c4ccccc4-c4ccccc43)[C@H](OC)C2)CC(=O)[C@H](C)/C=C(\C)[C@@H](O)[C@@H](OC)C(=O)[C@H](C)C[C@H](C)/C=C/C=C/C=C/1C` [Example 4, Rapamycin 42-ester with 2-(9H-fluoren-9-ylmethoxycarbonylamino)-2-methylpropionic acid], for which the “Skin graft survival time” value in assay [1] is 11.7 ± 0.8 days and 14.2 ± 0.6 days. In addition, the “immunosuppressive activity in the skin graft procedure (in words)” value in assay [1] (mouse, in vivo) was “shown to have immunosuppressive activity”. For the same compound, the “immunosuppressive activity in the LAF procedure (in words)” value in assay [2] is recorded as “shown to have immunosuppressive activity”.

Consider `CO[C@H]1C[C@@H]2CC[C@@H](C)[C@@](O)(O2)C(=O)C(=O)N2CCCC[C@H]2C(=O)O[C@H]([C@H](C)C[C@@H]2CC[C@@H](OC(=O)C(C)(C)N)[C@H](OC)C2)CC(=O)[C@H](C)/C=C(\C)[C@@H](O)[C@@H](OC)C(=O)[C@H](C)C[C@H](C)/C=C/C=C/C=C/1C` [Example 5, Rapamycin 42-ester with 2-amino-2-methylpropionic acid], for which the “Skin graft survival time” value in assay [1] is 12.3 ± 1.0 days and 11.8 ± 1.3 days.

Take `CO[C@H]1C[C@@H]2CC[C@@H](C)[C@@](O)(O2)C(=O)C(=O)N2CCCC[C@H]2C(=O)O[C@H]([C@H](C)C[C@@H]2CC[C@@H](OC(=O)C(C)(C)N)[C@H](OC)C2)CC(=O)[C@H](C)/C=C(\C)[C@@H](O)[C@@H](OC)C(=O)[C@H](C)C[C@H](C)/C=C/C=C/C=C/1C` [Example 7, Rapamycin 42-ester with 2-amino-2,-methylpropionic acid hydrochloride salt]: the “Skin graft survival time” value in assay [1] (hydrochloride salt) was found to be 10.2 ± 1.2 days. The IC50 in assay [2] (setting [5]) amounted to 3.9 nM.

Take `CO[C@H]1C[C@@H]2CC[C@@H](C)[C@@](O)(O2)C(=O)C(=O)N2CCCC[C@H]2C(=O)O[C@H]([C@H](C)C[C@@H]2CC[C@@H](OC(=O)C3(N)CCCC3)[C@H](OC)C2)CC(=O)[C@H](C)/C=C(\C)[C@@H](O)[C@@H](OC)C(=O)[C@H](C)C[C@H](C)/C=C/C=C/C=C/1C` [Example 10, Rapamycin 42-ester with 1-aminocyclopentane carboxylic acid]: the “Skin graft survival time” value in assay [1] is 10.5 ± 0.6 days and 10.2 ± 1.0 days. Moreover, the IC50 in assay [2] (setting [4]) turned out to be 6 nM.

`CO[C@H]1C[C@@H]2CC[C@@H](C)[C@@](O)(O2)C(=O)C(=O)N2CCCC[C@H]2C(=O)O[C@H]([C@H](C)C[C@@H]2CC[C@@H](OC(=O)C3(N)CCCC3)[C@H](OC)C2)CC(=O)[C@H](C)/C=C(\C)[C@@H](O)[C@@H](OC)C(=O)[C@H](C)C[C@H](C)/C=C/C=C/C=C/1C` [Example 11, Rapamycin 42-ester with 1-aminocyclopentane carboxylic acid hydrochloride salt]: the “Skin graft survival time” value in assay [1] (hydrochloride salt) is 10.3 ± 0.5 days and 11.5 ± 0.8 days and 12.3 ± 1.0 days. Besides, the IC50 in assay [2] (setting [5]) came out at 0.63 nM.

For the compound `CO[C@H]1C[C@@H]2CC[C@@H](C)[C@@](O)(O2)C(=O)C(=O)N2CCCC[C@H]2C(=O)O[C@H]([C@H](C)C[C@@H]2CC[C@@H](OC(=O)C3(N)CCCCC3)[C@H](OC)C2)CC(=O)[C@H](C)/C=C(\C)[C@@H](O)[C@@H](OC)C(=O)[C@H](C)C[C@H](C)/C=C/C=C/C=C/1C` [Example 14, Rapamycin 42-ester with 1-aminocyclohexane carboxylic acid], the “Skin graft survival time” value in assay [1] is 10.6 ± 0.5 days and 12.4 ± 1.1 days.

With `CO[C@H]1C[C@@H]2CC[C@@H](C)[C@@](O)(O2)C(=O)C(=O)N2CCCC[C@H]2C(=O)O[C@H]([C@H](C)C[C@@H]2CC[C@@H](OC(=O)C3(N)CCCCC3)[C@H](OC)C2)CC(=O)[C@H](C)/C=C(\C)[C@@H](O)[C@@H](OC)C(=O)[C@H](C)C[C@H](C)/C=C/C=C/C=C/1C` [Example 15, Rapamycin 42-ester with 1-aminocyclohexane carboxylic acid hydrochloride salt], in assay [1] (hydrochloride salt), the “Skin graft survival time” value is 11.5 ± 1.2 days and 11.2 ± 0.8 days. Besides, in assay [2] (setting [5]), the IC50 is 0.7 nM and 0.4 nM.

Turning to `CO[C@H]1C[C@@H]2CC[C@@H](C)[C@@](O)(O2)C(=O)C(=O)N2CCCC[C@H]2C(=O)O[C@H]([C@H](C)C[C@@H]2CC[C@@H](O)[C@H](OC)C2)CC(=O)[C@H](C)/C=C(\C)[C@@H](O)[C@@H](OC)C(=O)[C@H](C)C[C@H](C)/C=C/C=C/C=C/1C` [rapamycin], the “effect in the experimental allergic encephalomyelitis model (in words)” value in assay [3] is “effective”. Further, in the assay on IgE-like antibodies, the “formation of IgE-like antibodies (in words)” value was “effectively inhibited”. Besides, in the assay with Candida albicans, the “antifungal activity (in words)” value was “antifungal activity”. Besides, in assay [2] (Mus musculus, Lymphocyte), the IC50 was in the range of 0.4 to 6.8 nM. Also, the “effect in the adjuvant arthritis model (in words)” value in the assay on adjuvant arthritis was “effective”.

(Values after patent publication US5385910A, “Gem-distributed esters of rapamycin” (American Home Products Corporation, priority 1993, dated 1995).)
